# Legend:
# plasma citrulline = assay: Plasma citrulline levels in human Crohn's Disease patients treated with Teduglutide (randomized, double-blind, placebo-controlled clinical study); assay type: in vivo; conditions: for Baseline plasma citrulline levels, mean: baseline (Dosing Day 1), subjects with moderately active CD; for 2-week plasma citrulline levels, mean: week 2; for 2-week plasma citrulline levels, mean / 4-week plasma citrulline levels, mean / 8-week plasma citrulline levels, mean: subcutaneous injection daily, CD subjects; for 4-week plasma citrulline levels, mean: week 4; for 8-week plasma citrulline levels, mean: week 8
# Description: In a further experiment plasma citrulline levels in human patients treated with Teduglutide for the treatment of Crohn's Disease (CD) were determined. Subjects with moderately active CD were treated in a randomized, double-blind, placebo-controlled clinical study to assess the activity of 3 different doses of Teduglutide compared to placebo. The primary objective of the study was to assess the efficacy and the secondary objectives were to assess the safety and tolerability of the different doses of Teduglutide as compared to placebo. Following a screening visit to evaluate whether subjects met the inclusion/exclusion criteria, the study ran over a period of up to 12 weeks, including visits at baseline/Dosing Day 1, Weeks 2, 4, and 8, and one at the end of the follow-up period at Week 12. Teduglutide doses administered by subcutaneous injection were 0.05, 0.10 and 0.20 mg/kg on a daily basis for 8 weeks. The primary efficacy variable used was the percentage of subjects with a response, defined as a 100-point or greater reduction in the subject's CDAI score at dosing Week 8 from their baseline score or a CDAI score less than 150 at Week 8.
# arrhythmia incidence = conditions: CAST, cited from earlier work; for mortality in the drug treatment groups: fold greater
# bone mineral density = conditions: administration of fluoride, cited from earlier work
smiles,measurement,setting,value
CC[C@H](C)[C@H](NC(=O)[C@H](Cc1ccccc1)NC(=O)[C@H](CC(=O)O)NC(=O)[C@H](CCCNC(=N)N)NC(=O)[C@H](C)NC(=O)[C@H](C)NC(=O)[C@H](CC(C)C)NC(=O)[C@H](CC(N)=O)NC(=O)[C@H](CC(=O)O)NC(=O)[C@H](CC(C)C)NC(=O)[C@@H](NC(=O)[C@@H](NC(=O)[C@H](CC(N)=O)NC(=O)[C@H](CCSC)NC(=O)[C@H](CCC(=O)O)NC(=O)[C@H](CC(=O)O)NC(=O)[C@H](CO)NC(=O)[C@H](Cc1ccccc1)NC(=O)[C@H](CO)NC(=O)CNC(=O)[C@H](CC(=O)O)NC(=O)CNC(=O)[C@@H](N)Cc1c[nH]cn1)[C@@H](C)O)[C@@H](C)CC)C(=O)N[C@@H](CC(N)=O)C(=O)N[C@@H](Cc1c[nH]c2ccccc12)C(=O)N[C@@H](CC(C)C)C(=O)N[C@H](C(=O)N[C@@H](CCC(N)=O)C(=O)N[C@H](C(=O)N[C@@H](CCCCN)C(=O)N[C@H](C(=O)N[C@H](C(=O)N[C@@H](CC(=O)O)C(=O)O)[C@@H](C)O)[C@@H](C)CC)[C@@H](C)O)[C@@H](C)CC [Teduglutide],"Baseline plasma citrulline levels, mean",plasma citrulline; 0.05 mg group,21.6 µmol/L
same,"Baseline plasma citrulline levels, mean",plasma citrulline; 0.10 mg group,24.7 µmol/L
same,"Baseline plasma citrulline levels, mean",plasma citrulline; 0.20 mg group,24.5 µmol/L
same,"mean citrulline level, change","plasma citrulline; from baseline to week 8, teduglutide-treated groups, placebo group remains the same",increases
same,"2-week plasma citrulline levels, mean",plasma citrulline; 0.05 mg group,30.3 µmol/L
same,"2-week plasma citrulline levels, mean",plasma citrulline; 0.10 mg group,36.9 µmol/L
same,"2-week plasma citrulline levels, mean",plasma citrulline; 0.20 mg group,32.7 µmol/L
same,"4-week plasma citrulline levels, mean",plasma citrulline; 0.05 mg group,34.5 µmol/L
same,"4-week plasma citrulline levels, mean",plasma citrulline; 0.10 mg group,49.1 µmol/L
same,"4-week plasma citrulline levels, mean",plasma citrulline; 0.20 mg group,38.8 µmol/L
same,"8-week plasma citrulline levels, mean",plasma citrulline; 0.05 mg group,37.9 µmol/L
same,"8-week plasma citrulline levels, mean",plasma citrulline; 0.10 mg group,46.0 µmol/L
same,"8-week plasma citrulline levels, mean",plasma citrulline; 0.20 mg group,41.8 µmol/L
COc1ccc(C(=O)Nc2ccccc2CCC2CCCCN2C)cc1 (stereo not shown) [encainide],arrhythmia incidence,arrhythmia incidence,significant reduction
same,mortality in the drug treatment groups,arrhythmia incidence,3 fold
O=C(NCC1CCCCN1)c1cc(OCC(F)(F)F)ccc1OCC(F)(F)F (stereo not shown) [flecainide],arrhythmia incidence,arrhythmia incidence,significant reduction
same,mortality in the drug treatment groups,arrhythmia incidence,3 fold
F [fluoride],fracture risk,bone mineral density; also weaker bone strength,increased fracture risk
same,bone mineral density,bone mineral density,significant increases

# — patent US20070184554A1, “Biomarker of improved intestinal function” (NPS ALLELIX CORP., priority 2005, published 2007)
